Results from patent US11161837B2, “Benzofuran derivatives for the treatment of hepatitis C” (BRISTOL-MYERS SQUIBB COMPANY, priority 2016, dated 2021).

Experiments:
[1] = test system: genotype 1b (Con-1) HCV replicon in Huh-7 cells; experiment: HCV replicon luciferase assay; format: cell-based; conditions: 1b replicon, Huh-7, Renilla luciferase, 3 days incubation
Experimental: The cell lines used to evaluate compounds consist of a human hepatocyte derived cell line (Huh-7) that constitutively expresses a genotype 1b (Con-1) HCV replicon or a genotype 1b (Con-1) HCV replicon with an asparagine replacing the cysteine at amino acid 316, or a genotype 2a (JFH-1) replicon, containing a Renilla luciferase reporter gene. These cells were maintained in Dulbecco's modified Eagle medium (DMEM) containing 10% FBS, 100 U/mL penicillin/streptomycin and 1.0 mg/mL G418.
HCV Replicon Luciferase Assay.
To evaluate compound efficacy, titrated compounds were transferred to sterile 384-well tissue culture treated plates, and the plates were seeded with HCV replicon cells (50 μL at a density of 2.4×10^3 cells/well) in DMEM containing 4% FBS (final DMSO concentration at 0.5%). After 3 days incubation at 37° C., cells were analyzed for Renilla Luciferase activity using the EnduRen substrate (Promega cat # E6485) according to the manufacturer's directions. Briefly, the EnduRen substrate was diluted in DMEM and then added to the plates to a final concentration of 7.5 μM. The plates were incubated for at least 1 h at 37° C. then read on a Viewlux Imager (PerkinElmer) using a luminescence program. The 50% effective concentration (EC50) was calculated using the four-parameter logistic formula noted above.

[2] = biological target: T1, NS5B proteins of HCV genotype 1b (Con1) (Hepatitis C virus genotype 1b, UniProt Q9WMX2); experiment: HCV NS5B RdRp enzyme assay; format: biochemical; conditions: 1b enzyme
T1 construct: Each untagged protein was expressed with an 18 amino acid C-terminal truncation to enhance the solubility; made in house; host or cells: E. coli BL21(DE3), pET21a
T1 sequence (Q9WMX2 2420-2992): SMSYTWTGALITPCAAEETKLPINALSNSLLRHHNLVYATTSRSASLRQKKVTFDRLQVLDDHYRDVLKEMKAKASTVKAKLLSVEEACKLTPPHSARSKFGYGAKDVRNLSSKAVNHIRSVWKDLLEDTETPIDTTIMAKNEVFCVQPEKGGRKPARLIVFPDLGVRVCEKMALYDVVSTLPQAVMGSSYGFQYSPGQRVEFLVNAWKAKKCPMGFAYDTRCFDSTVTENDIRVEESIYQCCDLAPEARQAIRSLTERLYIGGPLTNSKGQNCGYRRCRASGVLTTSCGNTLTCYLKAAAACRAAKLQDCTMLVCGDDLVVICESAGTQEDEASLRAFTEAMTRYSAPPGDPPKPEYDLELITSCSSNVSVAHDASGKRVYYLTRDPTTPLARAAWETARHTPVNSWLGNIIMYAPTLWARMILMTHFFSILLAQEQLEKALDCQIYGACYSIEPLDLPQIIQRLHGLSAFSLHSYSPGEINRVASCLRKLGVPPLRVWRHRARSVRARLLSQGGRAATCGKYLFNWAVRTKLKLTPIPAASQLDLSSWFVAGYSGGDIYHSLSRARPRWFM
Experimental: HCVNS5B RdRp Cloning, Expression, and Purification.
The cDNA encoding NS5B proteins of HCV genotype 1b (Con1), a genotype 1b variant with amino acid 316 mutated from cysteine to asparagine, and genotype 2a (JFH-1), were cloned into the pET21a expression vector. Each untagged protein was expressed with an 18 amino acid C-terminal truncation to enhance the solubility. The E. coli competent cell line BL21(DE3) was used for expression of the protein. Cultures were grown at 37° C. for ˜4 hours until the cultures reached an optical density of 2.0 at 600 nm. The cultures were cooled to 20° C. and induced with 1 mM IPTG. Fresh ampicillin was added to a final concentration of 50 μg/mL and the cells were grown overnight at 20° C.
Cell pellets (3 L) were lysed for purification to yield 15-24 mgs of purified NS5B. The lysis buffer consisted of 20 mM Tris-HCl, pH 7.4, 500 mM NaCl, 0.5% triton X-100, 1 mM DTT, 1 mM EDTA, 20% glycerol, 0.5 mg/mL lysozyme, 10 mM MgCl2, 15 ug/mL deoxyribonuclease I, and Complete TM protease inhibitor tablets (Roche). After addition of the lysis buffer, frozen cell pellets were resuspended using a tissue homogenizer. To reduce the viscosity of the sample, aliquots of the lysate were sonicated on ice using a microtip attached to a Branson sonicator. The sonicated lysate was centrifuged at 100,000×g for 30 minutes at 4° C. and filtered through a 0.2 μm filter unit (Corning).
The protein was purified using two sequential chromatography steps: Heparin sepharose CL-6B and polyU sepharose 4B. The chromatography buffers were identical to the lysis buffer but contained no lysozyme, deoxyribonuclease I, MgCl2 or protease inhibitor and the NaCl concentration of the buffer was adjusted according to the requirements for charging the protein onto the column. Each column was eluted with a NaCl gradient which varied in length from 5-50 column volumes depending on the column type. After the final chromatography step, the resulting purity of the enzyme is >90% based on SDS-PAGE analysis. The enzyme was aliquoted and stored at −80° C.
HCVNS5B RdRp Enzyme Assay.
An on-bead solid phase homogeneous assay was used in a 384-well format to assess NS5B inhibitors (WangY-K, Rigat K, Roberts S, and Gao M (2006) Anal Biochem, 359: 106-111). The biotinylated oligo dT12 primer was captured on streptavidin-coupled imaging beads (GE, RPNQ0261) by mixing primer and beads in 1× buffer and incubating at room temperature for three hours. Unbound primer was removed after centrifugation. The primer-bound beads were resuspended in 3× reaction mix (20 mM Hepes buffer, pH 7.5, dT primer coupled beads, poly A template, ^3H-UTP, and RNAse inhibitor (Promega N2515)). Compounds were serially diluted 1:3 in DMSO and aliquoted into assay plates. Equal volumes (10 μL) of water, 3× reaction mix, and enzyme in 3× assay buffer (60 mM Hepes buffer, pH 7.5, 7.5 mM MgCl2, 7.5 mM KCl, 3 mM DTT, 0.03 mg/mL BSA, 6% glycerol) were added to the diluted compound on the assay plate. Final concentration of components in 384-well assay: 0.36 nM template, 15 nM primer, 0.29 μM ^3H-UTP (0.3 μCi), 1.6 U/μL RNAse inhibitor, 7 nM NS5B enzyme, 0.01 mg/mL BSA, 1 mM DTT, and 0.33 μg/μL beads, 20 mM Hepes buffer, pH 7.5, 2.5 mM MgCl2, 2.5 mM KCl, and 0.1% DMSO.
Reactions were allowed to proceed from 4 to 24 hours at 30° C. For 24 hour reactions, enzyme and inhibitors were pre-incubated for 24 hours before adding template and primer. Reactions were terminated by the addition of 50 mM EDTA (10 μL). After incubating for at least 15 minutes, plates were read on an Amersham LEADseeker multimodality imaging system.
IC50 values for compounds were determined using ten different [I]. IC50 values were calculated from the inhibition using the four-parameter logistic formula y=A+((B−A)/(1+((C/x)^D))), where A and B denote minimal and maximal % inhibition, respectively, C is the IC50, D is hill slope and x represents compound concentration.

Row | Compound | EC50 [1] [nM] | IC50 [2] [nM] | EC50 ([1]; Hepatitis C virus, Huh-7, 72 h) [nM]
1 | CNC(=O)c1c(-c2ccc(F)cc2)oc2ccc(-c3cc(C(=O)NC4(c5ncccn5)CC(OC)C4)c(OC)cc3C)c(F)c12 (single isomer, unassigned) [Example 13a, 4-Fluoro-2-(4-fluorophenyl)-5-(4-methoxy-5-((3-methoxy-1-(pyrimidin-2-yl)cyclobutyl)carbamoyl)-2-methylphenyl)-N-methylbenzofuran-3-carboxamide] | 30 | 30 | 
2 | CNC(=O)c1c(-c2ccc(F)cc2)oc2ccc(-c3cc(C(=O)NC4(c5ncccn5)CC(F)(F)C4)c(OC)cc3C)c(F)c12 [Example 18, 5-(5-(3,3-Difluoro-1-(pyrimidin-2-yl)cyclobutylcarbamoyl)-4-methoxy-2-methylphenyl)-4-fluoro-2-(4-fluorophenyl)-N-methylbenzofuran-3-carboxamide] |  | 140 | 10
3 | CNC(=O)c1c(-c2ccc(F)cc2)oc2ccc(-c3cc(C(=O)NC4(c5ncccn5)CC(OC)(OC)C4)c(OC)cc3C)c(F)c12 [Example 14, 5-(5-((3,3-Dimethoxy-1-(pyrimidin-2-yl)cyclobutyl)carbamoyl)-4-methoxy-2-methylphenyl)-4-fluoro-2-(4-fluorophenyl)-N-methylbenzofuran-3-carboxamide] |  | 30 | 20
4 | CNC(=O)c1c(-c2ccc(F)cc2)oc2cc(CCC(F)(F)F)c(-c3ccc(OC)c(C(=O)NC4(c5ncccn5)CC(OC(F)(F)F)C4)c3)cc12 (single isomer, unassigned) [Example 47a, 2-(4-Fluorophenyl)-5-(4-methoxy-3-((1-(pyrimidin-2-yl)-3-(trifluoromethoxy)cyclobutyl)carbamoyl)phenyl)-N-methyl-6-(3,3,3-trifluoropropyl)benzofuran-3-carboxamide] |  | 20 | 10
5 | CNC(=O)c1c(-c2ccc(F)cc2)oc2ccc(-c3cc(C(=O)NC4(c5ncccn5)CC(F)(F)C4)ccc3C)c(F)c12 [Example 15, 5-(5-((3,3-Difluoro-1-(pyrimidin-2-yl)cyclobutyl)carbamoyl)-2-methylphenyl)-4-fluoro-2-(4-fluorophenyl)-N-methylbenzofuran-3-carboxamide] |  | 30 | 30
6 | CCCc1cc2oc(-c3ccc(F)cc3)c(C(=O)NC)c2cc1-c1ccc(OC)c(C(=O)NC2(c3ncccn3)CC(OC(F)(F)F)C2)c1 (single isomer, unassigned) [Example 51a, 2-(4-Fluorophenyl)-5-(4-methoxy-3-((1-(pyrimidin-2-yl)-3-(trifluoromethoxy)cyclobutyl)carbamoyl)phenyl)-N-methyl-6-propylbenzofuran-3-carboxamide] |  | 50 | 20
7 | CCCc1cc2oc(-c3ccc(F)cc3)c(C(=O)NC)c2cc1-c1cccc(C(=O)NC2(c3ncccn3)CC(OC(F)(F)F)C2)c1 (stereo not shown) [Example 44, 2-(4-Fluorophenyl)-N-methyl-6-propyl-5-(3-((1-(pyrimidin-2-yl)-3-(trifluoromethoxy)cyclobutyl)carbamoyl)phenyl)benzofuran-3-carboxamide] |  | 5.87 | 9.51
8 | CNC(=O)c1c(-c2ccc(F)cc2)oc2ccc(-c3cc(C(=O)NC4(c5ncccn5)CC(O)C4)c(OC)cc3C)c(F)c12 (single isomer, unassigned) [Example 12a, 4-Fluoro-2-(4-fluorophenyl)-5-(5-((3-hydroxy-1-(pyrimidin-2-yl)cyclobutyl)carbamoyl)-4-methoxy-2-methylphenyl)-N-methylbenzofuran-3-carboxamide] | 430 | 760 | 
9 | CNC(=O)c1c(-c2ccc(F)cc2)oc2ccc(-c3cc(C(=O)NC4(c5ncccn5)CC(OC)(OC)C4)cc(F)c3C)c(F)c12 [Example 8, 5-(5-(3,3-Dimethoxy-1-(pyrimidin-2-yl)cyclobutylcarbamoyl)-3-fluoro-2-methylphenyl)-4-fluoro-2-(4-fluorophenyl)-N-methylbenzofuran-3-carboxamide] |  | 40 | 20
10 | CNC(=O)c1c(-c2ccc(F)cc2)oc2ccc(-c3cc(C(=O)NC4(c5ncccn5)CC(O)C4)c(OC)cc3C)c(F)c12 (single isomer, unassigned) [Example 12b, 4-Fluoro-2-(4-fluorophenyl)-5-(5-((3-hydroxy-1-(pyrimidin-2-yl)cyclobutyl)carbamoyl)-4-methoxy-2-methylphenyl)-N-methylbenzofuran-3-carboxamide] | 140 | 210 | 
11 | CNC(=O)c1c(-c2ccc(F)cc2)oc2ccc(-c3cc(C(=O)NC4(c5ncccn5)CC(O)C4)cc(F)c3C)c(F)c12 (single isomer, unassigned) [Example 9b, 4-Fluoro-5-(3-fluoro-5-((3-hydroxy-1-(pyrimidin-2-yl)cyclobutyl)carbamoyl)-2-methylphenyl)-2-(4-fluorophenyl)-N-methylbenzofuran-3-carboxamide] | 300 | 310 | 
12 | CCOc1cc2oc(-c3ccc(F)cc3)c(C(=O)NC)c2cc1-c1ccc(OC)c(C(=O)NC2(c3ncccn3)CC(OC(F)F)C2)c1 (single isomer, unassigned) [Example 66a, 5-(3-((3-(Difluoromethoxy)-1-(pyrimidin-2-yl)cyclobutyl)carbamoyl)-4-methoxyphenyl)-6-ethoxy-2-(4-fluorophenyl)-N-methylbenzofuran-3-carboxamide] |  | 1.91 | 4.05
13 | CNC(=O)c1c(-c2ccc(F)cc2)oc2cc(CCC(F)(F)F)c(-c3ccc(OC)c(C(=O)NC4(c5ncccn5)CC(OC(F)F)C4)c3)cc12 (stereo not shown) [Example 43, 5-(3-((3-(Difluoromethoxy)-1-(pyrimidin-2-yl)cyclobutyl)carbamoyl)-4-methoxyphenyl)-2-(4-fluorophenyl)-N-methyl-6-(3,3,3-trifluoropropyl)benzofuran-3-carboxamide] |  | 10 | 5.6
14 | CNC(=O)c1c(-c2ccc(F)cc2)oc2ccc(-c3cc(C(=O)NC4(c5ncccn5)CC(O)C4)ccc3C)c(F)c12 (single isomer, unassigned) [Example 5b, 4-Fluoro-2-(4-fluorophenyl)-5-(5-((3-hydroxy-1-(pyrimidin-2-yl)cyclobutyl)carbamoyl)-2-methylphenyl)-N-methylbenzofuran-3-carboxamide] | 1190 | 230 | 
